These results are taken from patent US20160101125A1, “COMPOSITIONS FOR USE IN CARTILAGE BREAKDOWN” (NESTEC S.A., priority 2013, published 2016).

Holding throughout (assay type): cell-based, Bos Taurus
What all share (conditions): 1.5 μM, 3 days

For one assay, the system named is ADAMTS-5 mRNA. Kind of assay: ADAMTS-5 mRNA expression in bovine primary chondrocytes in alginate beads (real-time PCR, relative to GAPDH). For orientation: In qPCR the cycle at which signal appears reflects the starting amount.
For a further assay, the system named is COX-2 mRNA. Kind of assay: COX-2 mRNA expression in bovine primary chondrocytes in alginate beads (real-time PCR, relative to GAPDH). Here is the method: The foot of a young cow was washed to remove soil. The skin was removed from the foot. The articulation was opened transversally. Intra articular ligaments were transected. The opened articulation was washed with phosphate buffered saline. With a scalpel blade, full thickness slices of cartilage were dissected out and collected in DMEM high glucose with 10 mM hepes and 1% Penicillin-Streptomycin. Slices of cartilage were washed in DMEM high glucose with 10 mM hepes and 1% Penicillin-Streptomycin.
Cartilage was then digested successively by 0.5 mg/ml of hyluronidase during 30 minutes, 1.0 mg/ml of pronase E during 60 minutes and 1.0 mg/ml of collagenase overnight under slow agitation. […]
Total RNA was isolated from pool of 40 beads and isolated using RNeasy kit from Qiagen. cDNA was obtained by reverse transcription of RNA with the Primescript 1st strand cDNA Synthesis kit from Takara. mRNA expression of ADAMTS-5, COX-2, MMP-13 and GAPDH were quantified in real-time PCR (SYBR Green)
FIGS. 1 to 3 show mRNA expression of ADAMTS-5, COX-2 and MMP-13 normalized by GAPDH mRNA expression after 3 days of culture. Data were expressed as fold change in gene expression compared to negative control (cells cultured in complete medium). Results were calculated according to the 2^−ΔΔCT method.
IL1a interleukin-1 alpha 10 ng/ml Data were expressed as median±S.E. Median (2 experiments of 3 replicates each). […]

The test system of a further assay is MMP-13 mRNA. Kind of assay: MMP-13 mRNA expression in bovine primary chondrocytes in alginate beads (real-time PCR, relative to GAPDH).
The mark [1] stands for this setting: absence of IL1a (normal conditions).
Where [2] appears, read: presence of IL1a 10 ng/ml (disease conditions).

`O=c1c(O)c(-c2ccc(O)c(O)c2)oc2cc(O)cc(O)c12` [QRC, quercetin]: the “ADAMTS-5 mRNA expression relative to GAPDH” value in the assay on ADAMTS-5 mRNA (setting [1]) and in the assay on ADAMTS-5 mRNA (setting [2]) was “decrease” each time. Moreover, the “COX-2 mRNA expression relative to GAPDH” value in the assay on COX-2 mRNA (setting [1]) was “reduce”; in the assay on COX-2 mRNA (setting [2]), “decrease”. The “MMP-13 mRNA expression relative to GAPDH” value with MMP-13 mRNA (setting [1]) and in the assay on MMP-13 mRNA (setting [2]) was “decrease” each time.
